Results published in patent publication US20250011288A1 (BRISTOL-MYERS SQUIBB COMPANY, priority 2021, published 2025).

molecular target: T1, human RXFP1 (Homo sapiens, UniProt Q9HBX9); assay: human RXFP1 (hRXFP1) HEK293 cAMP assay (HTRF); assay type: cell-based; settings: HEK293 cells stably expressing human RXFP1, 30 min at room temperature
T1 construct: expressed in transfected cells
T1 sequence (Q9HBX9 1-757): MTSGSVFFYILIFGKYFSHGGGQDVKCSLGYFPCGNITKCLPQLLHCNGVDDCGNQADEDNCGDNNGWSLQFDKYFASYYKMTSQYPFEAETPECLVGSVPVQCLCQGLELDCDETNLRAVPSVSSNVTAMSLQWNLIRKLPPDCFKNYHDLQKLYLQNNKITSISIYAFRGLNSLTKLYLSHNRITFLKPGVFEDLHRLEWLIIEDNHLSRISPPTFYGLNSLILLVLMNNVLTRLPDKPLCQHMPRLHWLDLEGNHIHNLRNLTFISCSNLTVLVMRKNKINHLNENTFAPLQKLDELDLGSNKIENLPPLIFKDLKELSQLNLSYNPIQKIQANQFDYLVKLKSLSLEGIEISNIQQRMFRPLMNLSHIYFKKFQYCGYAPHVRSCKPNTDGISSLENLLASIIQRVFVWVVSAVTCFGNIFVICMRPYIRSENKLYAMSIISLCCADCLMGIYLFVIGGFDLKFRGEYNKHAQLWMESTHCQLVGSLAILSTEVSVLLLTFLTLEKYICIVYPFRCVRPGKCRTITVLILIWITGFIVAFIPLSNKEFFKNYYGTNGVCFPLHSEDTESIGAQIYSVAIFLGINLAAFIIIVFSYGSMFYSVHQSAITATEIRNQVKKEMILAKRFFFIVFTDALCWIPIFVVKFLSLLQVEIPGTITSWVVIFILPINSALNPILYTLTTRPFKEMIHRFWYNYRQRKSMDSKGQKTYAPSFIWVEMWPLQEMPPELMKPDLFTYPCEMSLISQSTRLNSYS
Method: RXFP1 Cyclic Adenosine Monophosphate (cAMP) Assays. […] Cells were dissociated and suspended in assay buffer. The assay buffer was HBSS buffer (with calcium and magnesium) containing 20 mM HEPES, 0.05% BSA, and 0.5 mM IBMX. Cells (3000 cells per well, except 1500 cell per well for HEK293 cells stably expressing human RXFP1) were added to 384-well Proxiplates (Perkin-Elmer). Cells were immediately treated with test compounds in DMSO (2% final) at final concentrations in the range of 0.010 nM to 50 µM. Cells were incubated for 30 min at room temperature. The level of intracellular cAMP was determined using the HTRF HiRange cAMP assay reagent kit (Cisbio) according to manufacturer's instructions. Solutions of cryptate conjugated anti-cAMP and d2 fluorophore-labelled cAMP were made in a supplied lysis buffer separately. Upon completion of the reaction, the cells were lysed with equal volume of the d2-cAMP solution and anti-cAMP solution. […] The potency and activity of a compound to […] cAMP production was then determined by fitting to a 4-parametric logistic equation from a plot of cAMP level versus compound concentrations.

Compared with `COc1ncc(C2=NOC3CC(C(OC(=O)NC4CCC4)C4CC4)CC23)cc1C(=O)N[C@@H]1C2CCC(/C2=C/C2CC(F)(F)C2)[C@@H]1C(=O)Nc1ccc(F)c(C(F)(F)F)c1` (stereo partly drawn) [Example 161, cyclopropyl[3-(5-{[(2R,3S,7Z)-7-[(3,3-difluorocyclobutyl)methylidene]-3-{[4-fluoro-3-(trifluoromethyl)phenyl]carbamoyl}bicyclo[2.2.1]heptan-2-yl]carbamoyl}-6-methoxypyridin-3-yl)-3aH,4H,5H,6H, 6aH-cyclopenta[d][1,2]oxazol-5-yl]methyl N-cyclobutylcar-bamate], `COc1ncc(C2=NOC3CC(C(O)C(F)(F)F)CC23)cc1C(=O)N[C@H]1[C@@H](C(=O)Nc2ccc(F)c(C(F)(F)F)c2)[C@H]2CC[C@@H]1/C2=C\C1CC1` (stereo partly drawn) [Example 130, N-((1R,2R,3S,4R,Z)-7-(cyclopropylmethylene)-3-((4-fluoro-3-(trifluoromethyl)phenyl)carbamoyl)bicyclo[2.2.1]heptan-2-yl)-2-methoxy-5-(5-(2,2,2-trifluoro-1-hydroxyethyl)-3a,5,6,6a-tetrahydro-4H-cyclopenta[d]isoxazol-3-yl)nicotinamide] is 7.5-fold lower in EC50: 9 nM for the first, 1.2 nM for the second. The second is the more potent here.

First: COc1ncc(C2=NOC3CC(O)CC23)cc1C(=O)N[C@H]1[C@@H](C(=O)Nc2ccc(F)c(C(F)(F)F)c2)[C@H]2CC[C@@H]1/C2=C\C1CCC1 (stereo partly drawn) [Example 117, N-((1R,2R,3S,4R,Z)-7-(cyclobutyl-methylene)-3-((4-fluoro-3-(trifluoromethyl)phenyl)carbamoyl)bicyclo[2.2.1]heptan-2-yl)-5-(5-hydroxy-3a,5,6,6a-tetrahydro-4H-cyclopenta[d]isoxazol-3-yl)-2-methoxynicotinamide]
Second: COc1ncc(C2=NOC3CC(C(N)=O)CC23)cc1C(=O)N[C@H]1[C@@H](C(=O)Nc2ccc(F)c(C(F)(F)F)c2)[C@H]2CC[C@@H]1/C2=C\C1CC1 (single isomer, unassigned) [Example 65]
The EC50 of the first is 6-fold lower: 3.5 nM for the first, 21 nM for the second.

First: COc1ncc(-c2cc(C(=O)O)ccc2F)nc1C(=O)N[C@@H]1C2CCC(C2=C(C)C)[C@@H]1C(=O)Nc1ccc(F)c(C(F)(F)F)c1 (stereo partly drawn) [Example 24, 4-Fluoro-3-(6-{[(2R,3S)-3-{[4-fluoro-3-(trifluoromethyl)phenyl]carbamoyl}-7-(propan-2-ylidene)bicyclo [2.2.1]heptan-2-yl]carbamoyl}-5-methoxypyrazin-2-yl)benzoic acid]
Second: COc1ncc(-c2cc(C(=O)O)ccc2F)nc1C(=O)N[C@H]1[C@@H](C(=O)Nc2ccc(F)c(C(F)(F)F)c2)[C@H]2CC[C@@H]1/C2=C\c1cnoc1 [Example 26, 4-fluoro-3-(6-(((1R,2R,3S,4R,Z)-3-((4-fluoro-3-(trifluoromethyl)phenyl)carbamoyl)-7-(isoxazol-4-ylmethylene)bicyclo[2.2.1]heptan-2-yl)carbamoyl)-5-methoxypyrazin-2-yl)benzoic acid]
The EC50 of the first is 13-fold higher: 1000 nM for the first, 76 nM for the second. The second is the more potent here.

Compared with `CCCc1cnc(OC)c(C(=O)N[C@@H]2C3CCC(/C3=C/C(F)(F)F)[C@@H]2C(=O)Nc2ccc(F)c(C(F)(F)F)c2)n1` (stereo partly drawn) [Example 52, N-[(2R,3S,7Z)-3-{[4-fluoro-3-(trifluoromethyl)phenyl]carbamoyl}-7-(2,2,2-trifluoroethylidene)bicyclo[2.2.1]heptan-2-yl]-3-methoxy-6-propylpyrazine-2-carboxamide], `O=C(O)c1ccc(F)c(-c2cnc(OCCO)c(C(=O)N[C@@H]3C4CCC(/C4=C/C(F)(F)F)[C@@H]3C(=O)Nc3ccc(F)c(C(F)(F)F)c3)n2)c1` (stereo partly drawn) [Example 47, 4-Fluoro-3-(6-{[(2R,3S,7Z)-3-{[4-fluoro-3-(trifluoromethyl)phenyl]carbamoyl}-7-(2,2,2-trifluoroethylidene)bicyclo[2.2.1]heptan-2-yl]carbamoyl}-5-(2-hydroxyethoxy)pyrazin-2-yl)benzoic acid] is 6.5-fold lower in EC50: 1300 nM for the first, 200 nM for the second. The second is the more potent here.

First: COCCn1cc(OC)c(C(=O)N[C@@H]2C3CCC(/C3=C/C3CC3)[C@@H]2C(=O)Nc2ccc(F)c(C(F)(F)F)c2)n1 (stereo partly drawn) [Example 79]
Second: COc1ncc(C2=NOC(C)(CO)C2)cc1C(=O)N[C@H]1[C@@H](C(=O)Nc2ccc(F)c(C(F)(F)F)c2)[C@H]2CC[C@@H]1/C2=C\C1CC1 (stereo partly drawn) [Example 157, N-[(1R,2R,3S,4R, 7Z)-7-(cyclopropyl-methylidene)-3-{[4-fluoro-3-(trifluoromethyl)phenyl]carbamoyl}bicyclo[2.2.1]heptan-2-yl]-5-[5-(hydroxymethyl)-5-methyl-4,5-dihydro-1,2-oxazol-3-yl]-2-methoxypyridine-3-carboxamide]
The EC50 of the first is 41-fold higher: 230 nM for the first, 5.6 nM for the second.

First: COc1ncc(C2=NOC3CC(CO)CC23)cc1C(=O)N[C@H]1[C@@H](C(=O)Nc2ccc(F)c(C(F)(F)F)c2)[C@H]2CC[C@@H]1/C2=C\CCC(F)(F)F (stereo partly drawn) [Example 139, N-((1R,2R,3S,4R,Z)-3-((4-fluoro-3-(trifluoromethyl)phenyl)carbamoyl)-7-(4,4,4-trifluorobutylidene)bicyclo[2.2.1]heptan-2-yl)-5-(5-(hydroxymethyl)-3a,5,6,6a-tetrahydro-4H-cyclopenta[d]isoxazol-3-yl)-2-methoxynicotinamide]
Second: COc1ncc(C2=NOC3CC(C(O)C(F)(F)F)CC23)cc1C(=O)N[C@H]1[C@@H](C(=O)Nc2ccc(F)c(C(F)(F)F)c2)[C@H]2CC[C@@H]1/C2=C\C1CC1 (stereo partly drawn) [Example 131, N-((1R,2R,3S,4R,Z)-7-(cyclopropyl-methylene)-3-((4-fluoro-3-(trifluoromethyl)phenyl)carbamoyl)bicyclo[2.2.1]heptan-2-yl)-2-methoxy-5-(5-(2,2,2-trifluoro-1-hydroxyethyl)-3a,5,6,6a-tetrahydro-4H-cyclopenta[d]isoxazol-3-yl)nicotinamide]
The EC50 of the first is 1.8-fold higher: 2.9 nM for the first, 1.6 nM for the second. The second is the more potent here.

`COc1ncc(-c2cc([C@H](OC(=O)NC3CC3)C(F)(F)F)ccc2F)cc1C(=O)N[C@@H]1C2CCC(/C2=C/C2CCCC2)[C@@H]1C(=O)Nc1ccc(F)c(C(F)(F)F)c1` (stereo partly drawn) [Example 164, (1S)-1-[3-(5-{[(1R,2R,3S,4R, 7Z)-7-(cyclopentyl-methylidene)-3-{[4-fluoro-3-(trifluoromethyl)phenyl]carbamoyl}bicyclo[2.2.1]heptan-2-yl]carbamoyl}-6-methoxypyridin-3-yl)-4-fluorophenyl]-2,2,2-trifluoroethyl N-cyclopropylcar-bamate] and `CC1Cc2cc(C3=NOC4CC(O)(C(F)(F)F)CC34)cc(C(=O)N[C@H]3[C@@H](C(=O)Nc4ccc(F)c(C(F)(F)F)c4)[C@H]4CC[C@@H]3/C4=C\C3CCCC3)c2O1` (stereo partly drawn) [Example 156, N-[(1R,2R,3S,4R, 7Z)-7-(cyclopentyl-methylidene)-3-{[4-fluoro-3-(trifluoromethyl)phenyl]carbamoyl}bicyclo[2.2.1]heptan-2-yl]-5-[5-hydroxy-5-(trifluoromethyl) 3aH,4H,5H,6H, 6aH-cyclopenta[d][1,2]oxazol-3-yl]-2-methyl-2,3-dihydro-1-benzofuran-7-carboxamide] are within 1.5-fold of each other in EC50: 1.4 nM for the first, 1.3 nM for the second.

With `COc1ncc(C2=NOC3CC(CO)CC23)cc1C(=O)N[C@H]1[C@@H](C(=O)N[C@H](C)C2(C)CC2)[C@H]2CC[C@@H]1/C2=C\C(F)(F)F` (stereo partly drawn) [Example 115, 5-(5-(hydroxymethyl)-3a,5,6,6a-tetrahydro-4H-cyclopenta[d]isoxazol-3-yl)-2-methoxy-N-((1R,2R,3S,4R,Z)-3-(((R)-1-(1-methylcyclopropyl)ethyl)carbamoyl)-7-(2,2,2-trifluoroethylidene)bicyclo[2.2.1]heptan-2-yl)nicotinamide] the EC50 was 2.1 nM.
